Tested on: HT29 and Colo205 (human colon carcinoma) and H460 and Calu-6 (nonsmall cell carcinoma) xenograft tumors
Assay: Xenograft animal tumor models
Assay type: in vivo
Details: gemcitabine 160 mg/kg i.p., Balb/c (nu/nu) mice
Description: To test the ability of the Chk1 inhibitors of the invention to enhance the killing of tumors by DNA damaging agents in mice, xenograft tumor models using colon tumor cell lines are established. 5-fluorouracil (5-FU) or gemcitabine can be used as DNA damaging agents. HT29 and Colo205 (human colon carcinoma) and H460 and Calu-6 (nonsmall cell carcinoma) cells can be used to propagate xenograft tumors in 6-8 week old female […] Balb/c (nu/nu) mice. Mice are maintained in a laminar airflow cabinet under pathogen-free conditions and fed sterile food and water ad libitum. Cell lines are grown to subconfluence in RPMI 1640 media supplemented with 10% FBS, 100 U/mL penicillin, 100 μg/mL streptomycin, and 1.5 mM L-glutamine in a 5% CO2 humidified environment. Single cell suspensions are prepared in CMF-PBS, and cell concentration adjusted to 1×10^8 cells/mL. Mice are inoculated subcutaneously (s.c.) on the right flank or right leg with a total of 1×10^7 cells (100 μL). Mice are randomized (5-15 mice/group) into four treatment groups and used when tumors reach a volume of […] (usually 7-11 days post-inoculation). Tumors are measured with […] calipers and tumor volumes are estimated using the empirically derived formula: tumor volume (cm^3)=tumor length (cm) x tumor width (cm)×tumor depth (cm)/3.3. […] Tumor size is monitored every other day for the duration of the experiment.

## Nc1ccn([C@@H]2O[C@H](CO)[C@@H](O)C2(F)F)c(=O)n1 [gemcitabine, 2′,2′ difluoro-2′-deoxycytidine]
  tumor growth: delay in tumor growth
